# How the values were obtained:
# [1] = tested on: HBV; assay: Anti-viral assay in HepG2.2.15 cells: HBV inhibitory activity (HBV DNA in culture medium by q-PCR); type: cell-based; conditions: Hepatitis B virus, HepG2.2.15, 144 h, HepG2.2.15 cells, 6 days treatment, HBV DNA in culture medium by q-PCR, highest concentration 10 uM; read-out: EC50
# Excerpt: (§1) Example 2: Anti-Viral Assay in HepG2.2.15 Cells
# (§2) 1.1. Cell Line • HepG2.2.15 (the HepG2.2.15 cell line can be produced by transfection of the HepG2 cell line as described in Sells, Chen, and Acs 1987 (Proc. Natl. Acad. Sci. USA 84:1005-1009), and the HepG2 cell line is available from ATCC® under number HB-8065™). Reagents • DMEM/F12 (INVITROGEN-11330032) • FBS (GIBCO-10099-141) • Dimethyl sulfoxide(DMSO) (SIGMA-D2650) • Penicillin-streptomycin solution (HYCLONE-SV30010) • NEAA (INVITROGEN-1114050) • L-Glutamine (INVITROGEN-25030081) • Geneticin Selective Antibiotic (G418, 500 mg/ml) (INVITROGEN-10131027) • Trypsinase digestion solution (INVITROGEN-25300062) • CCK8 (BIOLOTE-35004) • QIAamp 96 DNA Blood Kit (12) (QIAGEN-51162) • FastStart Universal Probe Mast Mix (ROCHE-04914058001)
# (§3) 2.1. HBV Inhibitory Activity and Cytotoxicity Determination
# (§4) Seed the cell HepG2.2.15 cells into 96-well plate in 2% FBS culture medium at the density of 40,000 cells/well and 5,000 cells/well for HBV inhibitory activity and cytotoxicity determination, respectively. After seeding, incubate the cell plates at 37° C., 5% CO2 overnight. The next day, medium containing compounds is added to the cell to treat the cells for 6 days with medium refreshed once in the middle of the treatment. 8 dose points with 3 folds dilution of each compound were adopted and the highest concentration of the compounds is 10 uM and 100 uM for HBV inhibitory activity and cytotoxicity determination, respectively.
# The HBV DAN change in the cell culture medium induced by the compounds is measured by q-PCR method. Briefly, the HBV DNA in the culture medium is extracted using QIAamp 96 DNA Blood Kit according to the manual and then quantified by q-PCR using the primers and probe in the table below.
# (§5) EC50 and CC50 values are calculated by the GRAPHPAD PRISM software.
# [2] = Cytotoxicity determination in HepG2.2.15 cells (CCK-8); type: cell-based; conditions: human, 6 days treatment, CCK-8, highest concentration 100 uM
# Excerpt: as §1, §2, §3, §4
# After 6 days of compounds treatment, add 20 μl CCK-8 reagents to each well of cytotoxicity assay plates, incubate the plate at 37° C., 5% CO2 for 2.5 h and measure the absorbance at 450 nm wavelength, at the same time read the absorbance at 630 nm wavelength as reference.
# as §5
SMILES,EC50 [1] [nM],CC50 at 6 days [2] [nM]
"COC(=O)C1=C([C@H]2CC[C@H](c3nc(CC(=O)O)co3)CC2)NC(c2nccs2)=NC1c1ccc(F)cc1Cl (single isomer, unassigned) [Compound I-17-A, (trans)-2-(2-(4-(6-(2-Chloro-4-fluorophenyl)-5-(methoxycarbonyl)-2-(thiazol-2-yl)-3,6-dihydropyrimidin-4-yl)cyclohexyl)oxazol-4-yl)acetic Acid]",14,25700
"COC(=O)C1=C([C@H]2CC[C@H](c3nc(CC(=O)O)co3)CC2)NC(c2nccs2)=NC1c1ccc(F)cc1Br (single isomer, unassigned) [Compound I-18-A, (trans)-2-(2-(4-(6-(2-Bromo-4-fluorophenyl)-5-(methoxycarbonyl)-2-(thiazol-2-yl)-3,6-dihydropyrimidin-4-yl)cyclohexyl)oxazol-4-yl)acetic Acid]",7,15300
"COC(=O)C1=C([C@H]2CC[C@H](c3nc(CC(=O)O)co3)CC2)NC(c2nccs2)=NC1c1cccc(F)c1Br (single isomer, unassigned) [Compound I-19-B]",36,15200
"COC(=O)C1=C([C@H]2CC[C@H](c3nc(CC(=O)O)co3)CC2)NC(c2nccs2)=NC1c1cccc(F)c1Cl (single isomer, unassigned) [Compound I-20-B, (trans)-2-(2-(4-(6-(2-Chloro-3-fluorophenyl)-5-(methoxycarbonyl)-2-(thiazol-2-yl)-3,6-dihydropyrimidin-4-yl)cyclohexyl)oxazol-4-yl)acetic Acid]",30,7210
"COC(=O)C1=C([C@H]2CC[C@H](c3nc(CC(=O)O)co3)CC2)NC(c2nccs2)=NC1c1cccc(F)c1C (single isomer, unassigned) [Compound I-21-B, (trans)-2-(2-(4-(6-(3-Fluoro-2-methylphenyl)-5-(methoxycarbonyl)-2-(thiazol-2-yl)-3,6-dihydropyrimidin-4-yl)cyclohexyl)oxazol-4-yl)acetic Acid]",57,8040
"COC(=O)C1=C([C@H]2CC[C@H](c3nc(CC(=O)O)c(C)o3)CC2)NC(c2nccs2)=NC1c1ccc(F)c(F)c1Cl (single isomer, unassigned) [Compound I-22-B, (trans)-2-(2-(4-(6-(2-Chloro-3,4-difluorophenyl)-5-(methoxycarbonyl)-2-(thiazol-2-yl)-3,6-dihydropyrimidin-4-yl)cyclohexyl)-5-methyloxazol-4-yl)acetic Acid]",15,7680
"CCOC(=O)C1=C([C@H]2CC[C@H](c3nc(CC(=O)O)co3)CC2)NC(c2nccs2)=NC1c1ccc(F)c(F)c1Cl (single isomer, unassigned) [Compound I-23-B, (trans)-2-(2-(4-(6-(2-Chloro-3,4-difluorophenyl)-5-(ethoxycarbonyl)-2-(thiazol-2-yl)-3,6-dihydropyrimidin-4-yl)cyclohexyl)oxazol-4-yl)acetic Acid]",13,5480
"CCOC(=O)C1=C([C@H]2CC[C@H](c3nc(CCC(=O)O)co3)CC2)NC(c2nccs2)=NC1c1ccc(F)c(F)c1Cl (single isomer, unassigned) [Compound I-24-A, (trans)-3-(2-(4-(6-(2-Chloro-3,4-difluorophenyl)-5-(ethoxycarbonyl)-2-(thiazol-2-yl)-3,6-dihydropyrimidin-4-yl)cyclohexyl)oxazol-4-yl)propanoic Acid]",< 4.6,6790
"COC(=O)C1=C([C@H]2CC[C@H](c3nc(CC(C)(C)C(=O)O)co3)CC2)NC(c2nccs2)=NC1c1ccc(F)c(F)c1Cl (single isomer, unassigned) [Compound I-25-B, (trans)-3-(2-(4-(6-(2-Chloro-3,4-difluorophenyl)-5-(methoxycarbonyl)-2-(thiazol-2-yl)-3,6-dihydropyrimidin-4-yl)cyclohexyl)oxazol-4-yl)-2,2-dimethylpropanoic acid]",6.1,7900
"CCOC(=O)C1=C([C@H]2CC[C@H](c3ncc(C(=O)O)o3)CC2)NC(c2nccs2)=NC1c1ccc(F)c(F)c1Cl (single isomer, unassigned) [Compound I-26-B, (trans)-2-(4-(6-(2-chloro-3,4-difluorophenyl)-5-(ethoxycarbonyl)-2-(thiazol-2-yl)-3,6-dihydropyrimidin-4-yl)cyclohexyl)oxazole-5-carboxylic Acid]",55,15500
"CCOC(=O)C1=C([C@H]2CC[C@H](c3nc(C(C)(C)C(=O)O)co3)CC2)NC(c2nccs2)=NC1c1ccc(F)c(F)c1Cl (single isomer, unassigned) [Compound I-27-B, (trans)-2-(2-(4-(6-(2-chloro-3,4-difluorophenyl)-5-(ethoxycarbonyl)-2-(thiazol-2-yl)-3,6-dihydropyrimidin-4-yl)cyclohexyl)oxazol-4-yl)-2-methylpropanoic Acid]",18,5170
"CCOC(=O)C1=C([C@H]2CC[C@H](c3cnn(CC(=O)O)c3)CC2)NC(c2nccs2)=NC1c1ccc(F)c(F)c1Cl (single isomer, unassigned) [Compound I-28-B, (trans)-2-(4-(4-(6-(2-chloro-3,4-difluorophenyl)-5-(ethoxycarbonyl)-2-(thiazol-2-yl)-3,6-dihydropyrimidin-4-yl)cyclohexyl)-1H-pyrazol-1-yl)acetic Acid]",33,5280
"COC(=O)C1=C([C@H]2CC[C@H](c3cnn(CCC(=O)O)c3)CC2)NC(c2nccs2)=NC1c1ccc(F)cc1Cl (single isomer, unassigned) [Compound I-29-C, (trans)-3-(4-(4-(6-(2-Chloro-4-fluorophenyl)-5-(methoxycarbonyl)-2-(thiazol-2-yl)-3,6-dihydropyrimidin-4-yl)cyclohexyl)-1H-pyrazol-1-yl)propanoic Acid]",10,11200
"CCOC(=O)C1=C([C@H]2CC[C@H](c3cnn(C(C)(C)CC(=O)O)c3)CC2)NC(c2nccs2)=NC1c1ccc(F)c(F)c1Cl (single isomer, unassigned) [Compound I-30-D]",26,1160
"CCOC(=O)C1=C([C@H]2CC[C@H](c3cnn(CCC(=O)O)c3)CC2)NC(c2nccs2)=NC1c1ccc(F)c(F)c1Cl (single isomer, unassigned) [Compound I-32-B, 3-(4-((trans)-4-(6-(2-Chloro-3,4-difluorophenyl)-5-(ethoxycarbonyl)-2-(thiazol-2-yl)-3,6-dihydropyrimidin-4-yl)cyclohexyl)-1H-pyrazol-1-yl)propanoic Acid]",< 4.6,5810
"CCOC(=O)C1=C([C@H]2CC[C@H](c3cn(CCC(=O)O)nc3C)CC2)NC(c2nccs2)=NC1c1ccc(F)c(F)c1Cl (single isomer, unassigned) [Compound I-33-C, (trans)-3-(4-(4-(6-(2-Chloro-3,4-difluorophenyl)-5-(ethoxycarbonyl)-2-(thiazol-2-yl)-3,6-dihydropyrimidin-4-yl)cyclohexyl)-3-methyl-1H-pyrazol-1-yl)propanoic Acid]",7.2,2970
"CCOC(=O)C1=C([C@H]2CC[C@H](c3cc(C(=O)O)nn3C)CC2)NC(c2nccs2)=NC1c1ccc(F)c(F)c1Cl (single isomer, unassigned) [Compound I-35-C, (trans)-5-(4-(6-(2-chloro-3,4-difluorophenyl)-5-(ethoxycarbonyl)-2-(thiazol-2-yl)-3,6-dihydropyrimidin-4-yl)cyclohexyl)-1-methyl-1H-pyrazole-3-carboxylic Acid]",63,7160
"CCOC(=O)C1=C([C@H]2CC[C@H](c3cc(C(=O)O)n(C)n3)CC2)NC(c2nccs2)=NC1c1ccc(F)c(F)c1Cl (single isomer, unassigned) [Compound I-36-B, (trans)-3-(4-(6-(2-Chloro-3,4-difluorophenyl)-5-(ethoxycarbonyl)-2-(thiazol-2-yl)-3,6-dihydropyrimidin-4-yl)cyclohexyl)-1-methyl-1H-pyrazole-5-carboxylic Acid]",6.2,5940

# Reference: patent US11053235B2, “Substituted 1,4-dihydropyrimidines for the treatment of HBV infection or HBV-induced diseases” (Janssen Sciences Ireland Unlimited Company, priority 2018, dated 2021)
